US5798372A, “Method for preventing onset of restenosis after angioplasty employing a retinoid” (Allergan, priority 1997, dated 1998)

Legend:
[1] = test system: smooth muscle cells (canine aorta); assay: Serum (1%)-induced smooth muscle cell proliferation, 3H-thymidine incorporation; format: cell-based; conditions: for IC50: Canis lupus familiaris; for rank order potency on smooth muscle cells: from Table 2
Method: (§1) The effect of 1% serum on DNA synthesis by endothelial or smooth muscle cells using ^3 H-thymidine incorporation was measured. For measuring the effectiveness of retinoids in inhibiting endothelial or smooth muscle cell proliferation induced by certain mitogens, i.e., serotonin or β-FGF the indicated concentrations were added to the media instead of 1% serum. Primary cells isolated from canine aorta were used for these studies. Unlike the typical cell lines (e.g. NIH 3T3 cells, etc.) 6-7 weeks are required to isolate and grow these primary cells in sufficient number to perform a single experiment. For the following studies, the primary cells (passages 2-4) were plated on 35×10 mm tissue culture dishes in 10% fetal bovine serum (FBS) and incubated. After 72 hours of growth the medias was replaced with 0.1% FBS for synchronization and incubated for additional 72 hours. Then 1% serum was added and incubated for 20 hours followed by the addition of 1μCi of ^3 H-thymidine. Four hours after the addition of 3H-thymidine the DNA was precipitated and the amount of ^3 H-thymidine incorporated was measured. This value is reported as the serum or serotonin or β-FGF stimulated value for cellular proliferation and is expressed as a percentage of baseline ^3 H-thymidine incorporation.
(§2) To examine the antiproliferative effect of retinoids, they were dissolved in 100% ethanol and then added at the indicated final concentrations. The compounds were added at the time of adding 1% serum or serotonin or β-FGF to stimulate the cells. (The maximal final concentration of ethanol in culture media was 1% which is non-cytotoxic to endothelial or smooth muscle cells). After 20 hours of incubation with retinoids and 1% serum or serotonin or β-FGF, the ^3 H-thymidine incorporation was measured.
(§3) In this experimental dosages ranging between 0.01 and 100 μM were evaluated for the effect of AGN 191183 on cell growth.
(§4) The other retinoids, disclosed above, were also tested for their effect on smooth muscle and endothelial cell growth at the same dosages as for AGN 191183. Table 2 reports the ED50 for each of these retinoids.

[2] = test system: endothelial cells (canine aorta); assay: Serum (1%)-induced endothelial cell proliferation, 3H-thymidine incorporation; format: cell-based; conditions: for order of potency for endothelial cells: from Table 2
Method: as §1, §2, §3, §4

[3] = test system: smooth muscle cells (canine aorta); assay: Serotonin-induced smooth muscle cell proliferation, 3H-thymidine incorporation; format: cell-based; conditions: Canis lupus familiaris, Table 3, read-out: ED50 FOR SMOOTH MUSCLE CELLS, Serotonin
Method: as §1
as §2, with “(The maximal final concentration of ethanol in culture media was 1% which is non-cytotoxic to endothelial or smooth muscle cells).” left out
(§5) Certain of the retinoids were then tested for mitogen-induced cellular proliferation, utilizing serotonin (5HT) and β-FGF as such mitogens. In this testing, as reported in Table 3, below, the same dosages were evaluated for their effect on mitogen-induced cellular proliferation (The results are reported as ED50 and compared to the ED50 for serum-induced smooth muscle and endothelial cell growth).

[4] = test system: endothelial cells (canine aorta); assay: Serotonin-induced endothelial cell proliferation, 3H-thymidine incorporation; format: cell-based; conditions: Canis lupus familiaris, Table 3, read-out: ED50 FOR ENDOTHELIAL Cells, Serotonin
Method: as §1
as §2, with “(The maximal final concentration of ethanol in culture media was 1% which is non-cytotoxic to endothelial or smooth muscle cells).” left out
as §5

[5] = test system: smooth muscle cells (canine aorta); assay: β-FGF-induced smooth muscle cell proliferation, 3H-thymidine incorporation; format: cell-based; conditions: Canis lupus familiaris, Table 3, read-out: ED50 FOR SMOOTH MUSCLE CELLS, β-FGF
Method: as §1
as §2, with “(The maximal final concentration of ethanol in culture media was 1% which is non-cytotoxic to endothelial or smooth muscle cells).” left out
as §5

[6] = test system: endothelial cells (canine aorta); assay: β-FGF-induced endothelial cell proliferation, 3H-thymidine incorporation; format: cell-based; conditions: Canis lupus familiaris, Table 3, read-out: ED50 FOR ENDOTHELIAL Cells, β-FGF
Method: as §1
as §2, with “(The maximal final concentration of ethanol in culture media was 1% which is non-cytotoxic to endothelial or smooth muscle cells).” left out
as §5

RAR and RXR receptor = assay: RAR vs RXR agonist activity (retinoid selectivity); format: biochemical; conditions: Table 2; RAR selective agonist preferably has RAR vs RXR activity ratio of at least 5
Text: (Of course, pan agonists show agonist activity at both the RAR and RXR receptor.)
A pan agonist will have activity at both of the RAR and RXR receptor, e.g. similar potency at the RAR and RXR receptor.

[7] = test system: smooth muscle cells (canine aorta); assay: Serum (1%)-induced smooth muscle cell proliferation, 3H-thymidine incorporation; format: cell-based
[8] = test system: endothelial cells (canine aorta); assay: Serum (1%)-induced endothelial cell proliferation, 3H-thymidine incorporation; format: cell-based; conditions: Canis lupus familiaris, 1% serum, 100% = 1739 ± 71 cpm/10^6 cells, serum stimulated 1246 ± 91, read-out: % ENDOTHELIAL (cell growth, % of baseline 3H-thymidine incorporation)
[9] = serum induced, Table 2, read-out: ED50 FOR SMOOTH MUSCLE CELLS (concentration at which proliferation is inhibited by 50%)
[10] = serum induced, Table 3, read-out: ED50 FOR SMOOTH MUSCLE CELLS, Serum
[11] = Canis lupus familiaris, Endothelial cell, serum induced, Table 2, read-out: ED50 FOR ENDOTHELIAL CELL (concentration at which proliferation is inhibited by 50%)
[12] = read-out: ED50 FOR SMOOTH MUSCLE CELLS (concentration at which proliferation is inhibited by 50%)
[13] = Canis lupus familiaris, Endothelial cell, read-out: ED50 FOR ENDOTHELIAL CELL (concentration at which proliferation is inhibited by 50%)

CC1=C(/C=C/C(C)=C\C=C\C(C)=C\C(=O)O)C(C)(C)CCC1 [AGN 192013, (2E,4E,6Z,8E)-3,7-dimethyl-9-(2,6,6-trimethyl-1-cyclohexen-1-yl)-2,4,6,8-nonatetraenoic acid, reference compound]
IC50 [1, 9]: > 100 µM | IC50 [1, 10]: > 100 µM | IC50 [2, 11]: 2.25 µM | order of potency for endothelial cells ([2]; serum induced): AGN 192013>AGN 190205=AGN 191183 | IC50 [3]: 0.41 µM | IC50 [4]: 0.16 µM | IC50 [5]: > 100 µM | IC50 [6]: 26.5 µM

C/C(=C\c1ccc(C(=O)O)cc1)c1ccc2c(c1)C(C)(C)CCC2(C)C [AGN 191183, (E)-4-[2-(5,6,7,8-tetrahydro-5,5,8,8-tetramethyl-2-naphthalenyl)-1-propen-1-yl] benzoic acid]
IC50 [1, 12]: 0.03 µM | rank order potency on smooth muscle cells ([1]; serum induced): AGN 191659=191183>AGN 192327>AGN 191985>AGN 192326 | effectiveness for inhibiting the growth of smooth muscle and endothelial cells ([1]; smooth muscle and endothelial cells (also A2), serum induced): most effective retinoid for inhibiting the growth of both smooth muscle and endothelial cells | IC50 [2, 13]: 6.15 µM | order of potency for endothelial cells ([2]; serum induced): AGN 192013>AGN 190205=AGN 191183 | SELECTIVITY (RAR and RXR receptor): RAR | activity at 0.01 µM ([7]; Canis lupus familiaris, 0.01 μM, 1% serum, 100% = 2108 ± 165 cpm/10^6 cells, serum stimulated 725 ± 170, read-out: % SMOOTH MUSCLE (cell growth, % of baseline 3H-thymidine incorporation)): 376 ± 17% | activity at 0.05 µM ([7]; Canis lupus familiaris, 0.05 μM, 1% serum, 100% = 2108 ± 165 cpm/10^6 cells, serum stimulated 725 ± 170, read-out: % SMOOTH MUSCLE (cell growth, % of baseline 3H-thymidine incorporation)): 348 ± 95% | activity at 0.1 µM ([7]; Canis lupus familiaris, 0.1 μM, 1% serum, 100% = 2108 ± 165 cpm/10^6 cells, serum stimulated 725 ± 170, read-out: % SMOOTH MUSCLE (cell growth, % of baseline 3H-thymidine incorporation)): 219 ± 22% | activity at 0.5 µM ([7]; Canis lupus familiaris, 0.5 μM, 1% serum, 100% = 2108 ± 165 cpm/10^6 cells, serum stimulated 725 ± 170, read-out: % SMOOTH MUSCLE (cell growth, % of baseline 3H-thymidine incorporation)): 205 ± 17% | activity at 1 µM ([7]; Canis lupus familiaris, 1 μM, 1% serum, 100% = 2108 ± 165 cpm/10^6 cells, serum stimulated 725 ± 170, read-out: % SMOOTH MUSCLE (cell growth, % of baseline 3H-thymidine incorporation)): 185 ± 10% | activity at 5 µM ([7]; Canis lupus familiaris, 5 μM, 1% serum, 100% = 2108 ± 165 cpm/10^6 cells, serum stimulated 725 ± 170, read-out: % SMOOTH MUSCLE (cell growth, % of baseline 3H-thymidine incorporation)): 182 ± 3% | activity at 10 µM ([7]; Canis lupus familiaris, 10 μM, 1% serum, 100% = 2108 ± 165 cpm/10^6 cells, serum stimulated 725 ± 170, read-out: % SMOOTH MUSCLE (cell growth, % of baseline 3H-thymidine incorporation)): 126 ± 18% | activity at 50 µM ([7]; Canis lupus familiaris, 50 μM, 1% serum, 100% = 2108 ± 165 cpm/10^6 cells, serum stimulated 725 ± 170, read-out: % SMOOTH MUSCLE (cell growth, % of baseline 3H-thymidine incorporation)): 137 ± 25% | activity at 100 µM ([7]; Canis lupus familiaris, 100 μM, 1% serum, 100% = 2108 ± 165 cpm/10^6 cells, serum stimulated 725 ± 170, read-out: % SMOOTH MUSCLE (cell growth, % of baseline 3H-thymidine incorporation)): 77 ± 28% | activity at 0.1 µM ([8]; 0.1 μM): 959 ± 115% | activity at 0.5 µM ([8]; 0.5 μM): 840 ± 108% | activity at 1 µM ([8]; 1 μM): 815 ± 171% | activity at 5 µM ([8]; 5 μM): 686 ± 40% | activity at 10 µM ([8]; 10 μM): 406 ± 32% | activity at 50 µM ([8]; 50 μM): 17 ± 2% | activity at 100 µM ([8]; 100 μM): 9.3 ± 2.3%

CC(C)(C)c1ccc(C#Cc2ccc(C(=O)O)cn2)cc1OC1CCCCO1 (stereo not shown) [AGN 192327, 6-[2-(3-(2-tetrahydropyranyl)oxy)-(4-(1,1-dimethylethyl)phenyl)ethynyl]-3-nicotinic acid]
IC50 [1, 9]: 4 µM | rank order potency on smooth muscle cells ([1]; serum induced): AGN 191659=191183>AGN 192327>AGN 191985>AGN 192326 | IC50 [2, 11]: 29 µM | SELECTIVITY (RAR and RXR receptor): RAR

CC(C)(C)c1ccc(C#Cc2ccc(C(=O)O)cc2)cc1OC1CCCCO1 (stereo not shown) [AGN 192326, 4-[2-(3-(2-tetrahydropyranyl)oxy)-(4-(1,1-dimethylethyl)phenyl)ethynyl]benzoic acid]
IC50 [1, 9]: 6.5 µM | rank order potency on smooth muscle cells ([1]; serum induced): AGN 191659=191183>AGN 192327>AGN 191985>AGN 192326 | IC50 [2, 11]: 16.5 µM | SELECTIVITY (RAR and RXR receptor): RAR

CC1(C)CCC(C)(C)c2cc(C#Cc3ccc(C(=O)O)cc3)ccc21 [AGN 190205, 4-[2-(5,6,7,8-tetrahydro-5,5,8,8-tetramethyl-2-naphthalenyl)ethynyl] benzoic acid]
IC50 [1, 12]: 8.95 µM | IC50 [2, 13]: 6.8 µM | order of potency for endothelial cells ([2]; serum induced): AGN 192013>AGN 190205=AGN 191183 | SELECTIVITY (RAR and RXR receptor): RAR

C/C(=C\c1ccc(C(=O)O)s1)c1cc2c(cc1C)C(C)(C)CCC2(C)C [AGN 191659, (E)-5-[2-(5,6,7,8-tetrahydro-3,5,5,8,8-pentamethyl-2-naphthalenyl)-1-propen-1-yl] thiophene-2-carboxylic acid]
IC50 [1, 9]: 0.038 µM | rank order potency on smooth muscle cells ([1]; serum induced): AGN 191659=191183>AGN 192327>AGN 191985>AGN 192326 | IC50 [2, 11]: 39 µM | SELECTIVITY (RAR and RXR receptor): PAN AGONIST

CC1=C(/C=C/C#Cc2ccc(C(=O)O)cc2)C(C)(C)CCC1 [AGN 190121, (E)-4-[4-(2,6,6-trimethyl-1-cyclohexen-1-yl)but-2-en-1-ynyl] benzoic acid]
IC50 [1, 9]: 46 µM | IC50 [2, 11]: 23 µM | SELECTIVITY (RAR and RXR receptor): RAR

C/C(=C\c1cc(C(=O)O)cs1)c1cc2c(cc1C)C(C)(C)CCC2(C)C [AGN 191701, reference compound]
IC50 ([2]; serum induced, Table 2, read-out: ED50 FOR ENDOTHELIAL CELL (concentration at which proliferation is inhibited by 50%)): 28.5 µM | SELECTIVITY (RAR and RXR receptor): RXR | IC50 [7, 9]: 18 µM

CC1=C(/C=C/C(C)=C/C=C/C(C)=C\C(=O)O)C(C)(C)CCC1 [AGN 190013, (2Z,4E,6E,8E)-3,7-dimethyl-9-(2,6,6-trimethyl-1-cyclohexen-1-yl)-2,4,6,8-nonatetraenoic acid]
IC50 [1, 10]: 7.4 µM | IC50 ([2]; Canis lupus familiaris, Endothelial cell, serum induced, Table 3, read-out: ED50 FOR ENDOTHELIAL Cells, Serum): 31.5 µM | IC50 [3]: 5 µM | IC50 [4]: 0.0092 µM | IC50 [5]: > 100 µM | IC50 [6]: 0.009 µM
